Experimental data as given in patent US10206937B2, “Boronic acid derivatives and therapeutic uses thereof” (Qpex Biopharma, Inc., priority 2014, dated 2019).

What was measured:
NDM-1 [1] = target: T1, NDM-1 (Klebsiella pneumoniae, UniProt C7C422); experiment: biochemical
VIM-1 = target: T2, VIM-1 (Pseudomonas aeruginosa, UniProt A0A0F7KYQ8); experiment: biochemical; details: cleavage of nitrocefin (200 uM) by VIM-1 supernatant
T2 construct: made in house; host or cells: ECM6711 strain carrying pUCP24-VIM-1 plasmid; culture supernatant used unpurified

OXA-48 = OXA-48 (Klebsiella pneumoniae, UniProt Q6XEC0); experiment: Inhibition of purified class D carbapenemase OXA-48 (Ki, carbapenem substrates); type: biochemical; details: purified OXA-48, substrate biapenem; read-out: Ki OXA-48, Biapenem
[2] = target: T3, purified class A, C and D enzymes (UniProt P0AD64, L31Q/G234S/E235K, species not given); type: biochemical; details: read-out: Ki (SHV-12, NCF); purified SHV-12; nitrocefin reporter substrate
T3 construct: Ki (SHV-12, NCF); other: purified SHV-12; nitrocefin reporter substrate
T3 sequence (P0AD64 1-286 L31Q/G234S/E235K): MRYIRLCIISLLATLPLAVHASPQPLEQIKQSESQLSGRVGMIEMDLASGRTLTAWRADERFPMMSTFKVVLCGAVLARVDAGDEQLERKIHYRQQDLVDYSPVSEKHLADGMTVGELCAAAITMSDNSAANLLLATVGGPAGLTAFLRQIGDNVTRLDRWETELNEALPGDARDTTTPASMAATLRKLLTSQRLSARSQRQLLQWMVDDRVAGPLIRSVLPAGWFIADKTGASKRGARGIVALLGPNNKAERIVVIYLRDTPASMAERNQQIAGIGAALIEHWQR

[3] = target: T4, purified class A, C and D enzymes (UniProt Q6XEC0); type: biochemical; details: read-out: Ki (OXA-48, NCF); purified OXA-48; nitrocefin reporter substrate
T4 construct: rows headed: Ki (OXA-48, NCF); other: purified OXA-48; nitrocefin reporter substrate

[4] = target: T5, purified class A, C and D enzymes (UniProt Q9F663); type: biochemical; details: read-out: Ki (KPC-2, NCF); purified KPC-2; nitrocefin reporter substrate
T5 construct: rows headed: Ki (KPC-2, NCF); other: purified KPC-2; nitrocefin reporter substrate

NDM-1 [5] = target: T1, NDM-1; experiment: Inhibition of purified class B carbapenemase NDM-1 (Ki, imipenem substrate); type: biochemical; details: NDM-1, substrate imipenem; read-out: Ki NDM-1, Imipenem
[6] = target: purified class A, C and D enzymes (Enterobacter cloacae, UniProt P05364); type: biochemical; details: purified P99/AmpC of ECL; nitrocefin reporter substrate
[7] = target: purified class A, C and D enzymes (Escherichia coli, UniProt Q9L5C7); type: biochemical; details: purified CTX-M-14; nitrocefin reporter substrate
[8] = test system: strains of Enterobacteriaceae producing various carbapenemases (class A, D and B; 169 strains); experiment: Meropenem or tebipenem potentiation by Compounds 97 or 62 (MIC); type: cell-based; details: Compound 97 at a fixed concentration of 8 μg/ml
Method: The largest panel of clinical isolates expressing class A, D and B carbapenemases alone or in combination with other beta-lactamases (169 strains) was used to evaluate carbapenem potentiation activity of Compounds 97 and 62. MIC for meropenem and tebipenem of these strains were determined either alone or in the presence of Compounds 97 or 62, respectively, at a fixed concentration of 8 μg/ml in the growth media.

[9] = cleavage of imipenem (100 uM) by NDM-1, read-out: Ki, Imipenem

T1 sequence (C7C422 29-270, looked up, species assumed): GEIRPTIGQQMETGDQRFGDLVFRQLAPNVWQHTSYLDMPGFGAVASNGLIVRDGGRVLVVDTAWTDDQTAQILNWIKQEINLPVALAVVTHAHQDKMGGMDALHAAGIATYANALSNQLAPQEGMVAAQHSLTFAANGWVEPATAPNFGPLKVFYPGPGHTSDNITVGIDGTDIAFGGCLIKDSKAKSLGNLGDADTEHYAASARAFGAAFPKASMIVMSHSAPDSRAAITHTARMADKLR
purified class A, C and D enzymes (Escherichia coli, UniProt Q9L5C7), sequence (Q9L5C7 entry or part of it): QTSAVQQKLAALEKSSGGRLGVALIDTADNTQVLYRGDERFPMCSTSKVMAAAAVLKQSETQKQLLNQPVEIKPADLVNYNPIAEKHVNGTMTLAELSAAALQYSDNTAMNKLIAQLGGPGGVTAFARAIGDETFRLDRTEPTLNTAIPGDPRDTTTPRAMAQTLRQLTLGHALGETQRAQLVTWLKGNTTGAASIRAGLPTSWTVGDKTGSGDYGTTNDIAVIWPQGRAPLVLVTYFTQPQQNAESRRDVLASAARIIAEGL
purified class A, C and D enzymes (Enterobacter cloacae, UniProt P05364), sequence (P05364 21-381): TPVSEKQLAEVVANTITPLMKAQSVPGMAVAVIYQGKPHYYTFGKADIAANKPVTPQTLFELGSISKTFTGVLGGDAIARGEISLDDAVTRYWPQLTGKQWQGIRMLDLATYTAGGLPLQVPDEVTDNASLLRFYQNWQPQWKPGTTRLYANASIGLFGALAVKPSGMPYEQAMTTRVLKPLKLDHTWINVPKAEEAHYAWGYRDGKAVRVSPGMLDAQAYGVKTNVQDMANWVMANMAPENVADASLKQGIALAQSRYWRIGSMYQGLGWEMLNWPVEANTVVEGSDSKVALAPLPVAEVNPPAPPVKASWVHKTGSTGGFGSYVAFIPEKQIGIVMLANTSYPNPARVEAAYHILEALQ
OXA-48, sequence (Q6XEC0 23-265, looked up): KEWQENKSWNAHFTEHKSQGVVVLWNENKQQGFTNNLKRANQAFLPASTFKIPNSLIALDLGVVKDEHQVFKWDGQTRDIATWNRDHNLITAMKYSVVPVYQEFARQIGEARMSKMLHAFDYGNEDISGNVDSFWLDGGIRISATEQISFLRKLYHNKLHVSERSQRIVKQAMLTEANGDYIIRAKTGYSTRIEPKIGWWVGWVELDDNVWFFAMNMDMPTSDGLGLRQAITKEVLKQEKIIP

Compound | Ki (NDM-1 [1]; [9]) [µM] | IC50 (VIM-1) [µM] | Ki (OXA-48) [µM] | Ki [2] [µM] | Ki [3] [µM] | Ki [4] [µM] | Ki (NDM-1 [5]) [µM] | Ki (P99/AmpC of ECL, NCF) [6] | Ki (CTX-M-14, NCF) [7] | Ki (NDM-1 [1]; cleavage of biapenem (100 uM) by NDM-1, read-out: Ki, Biapenem) [µM] | Ki (NDM-1 [1]; cleavage of meropenem (100 uM) by NDM-1, read-out: Ki, Meropenem) [µM] | meropenem MIC [8]
CS[C@H]1Cc2cccc(C(=O)O)c2OB1O [Compound 16, (R)-2-hydroxy-3-(methylthio)-3,4-dihydro-2H-benzo[e][1,2]oxaborinine-8-carboxylic acid] | < 0.01 | < 1 | < 0.01 | 0.1 to 1 | < 0.1 | < 0.1 |  |  |  |  |  | 
NC(=O)COc1ccc2c(c1C(=O)O)OB(O)[C@@H](Sc1nnc(N)s1)C2 [Compound 80, (3R)-7-(2-amino-2-oxo-ethoxy)-3-[(5-amino-1,3,4-thiadiazol-2-yl)sulfanyl]-2-hydroxy-3,4-dihydro-1,2-benzoxaborinine-8-carboxylic acid] | > 0.1 | < 1 |  | < 0.1 | < 0.1 | 0.1 to 1 | > 0.1 | Y (0.1 μM to 1 μM) | X (Less than 0.1 μM) |  |  | 
CSc1ccc2c(c1C(=O)O)OB(O)[C@@H](Sc1nncn1C)C2 [Compound 29, (R)-2-hydroxy-3-(4-methyl-4H-1,2,4-triazol-3-ylthio)-7-(methylthio)-3,4-dihydro-2H-benzo[e][1,2]oxaborinine-8-carboxylic acid] | 0.01 to 0.1 | < 1 |  | < 0.1 | < 0.1 | 0.1 to 1 | 0.01 to 0.1 | Y (0.1 μM to 1 μM) | X (Less than 0.1 μM) |  |  | 
COc1ccc2c(c1C(=O)O)OB(O)[C@@H](Sc1nnc(CN3CCNCC3)n1N)C2 [Compound 71, (3R)-3-[[4-amino-5-(piperazin-1-ylmethyl)-1,2,4-triazol-3-yl]sulfanyl]-2-hydroxy-7-methoxy-3,4-dihydro-1,2-benzoxaborinine-8-carboxylic acid] | 0.01 to 0.1 | < 1 |  | < 0.1 | 0.1 to 1 | 0.1 to 1 | 0.01 to 0.1 | Z (Greater than 1 μM) | X (Less than 0.1 μM) |  |  | 
NCCSc1nnc(S[C@H]2Cc3cccc(C(=O)O)c3OB2O)s1 [Compound 116, (3R)-3-[[5-(2-aminoethylsulfanyl)-1,3,4-thiadiazol-2-yl]sulfanyl]-2-hydroxy-3,4-dihydro-1,2-benzoxaborinine-8-carboxylic acid] | < 0.01 | < 1 |  | < 0.1 | < 0.1 | < 0.1 | < 0.01 | X (Less than 0.1 μM) | X (Less than 0.1 μM) |  |  | 
COc1ccc2c(c1C(=O)O)OB(O)[C@@H](SCCN1CCNCC1)C2 [Compound 72, (3R)-2-hydroxy-7-methoxy-3-(2-piperazin-1-ylethylsulfanyl)-3,4-dihydro-1,2-benzoxaborinine-8-carboxylic acid] | > 0.1 | < 1 |  | < 0.1 | < 0.1 | < 0.1 | > 0.1 | Y (0.1 μM to 1 μM) | X (Less than 0.1 μM) |  |  | 
COc1ccc2c(c1C(=O)O)OB(O)[C@@H](Sc1nnc(Sc3nnc(N)s3)s1)C2 [Compound 111, (3R)-3-[[5-[(5-amino-1,3,4-thiadiazol-2-yl)sulfanyl]-1,3,4-thiadiazol-2-yl]sulfanyl]-2-hydroxy-7-methoxy-3,4-dihydro-1,2-benzoxaborinine-8-carboxylic acid] | > 0.1 | < 1 |  | < 0.1 | > 1 | 0.1 to 1 | > 0.1 | Y (0.1 μM to 1 μM) | X (Less than 0.1 μM) |  |  | 
COc1ccc2c(c1C(=O)O)OB(O)[C@@H](SCCc1nnc(N)s1)C2 [Compound 43, (R)-3-(2-(5-amino-1,3,4-thiadiazol-2-yl)ethylthio)-2-hydroxy-7-methoxy-3,4-dihydro-2H-benzo[e][1,2]oxaborinine-8-carboxylic acid] | < 0.01 | < 1 |  | < 0.1 | < 0.1 | < 0.1 | < 0.01 | X (Less than 0.1 μM) | X (Less than 0.1 μM) |  |  | 
COc1ccc2c(c1C(=O)O)OB(O)[C@@H](Sc1cncs1)C2 [Compound 69, (3R)-2-hydroxy-7-methoxy-3-thiazol-5-ylsulfanyl-3,4-dihydro-1,2-benzoxaborinine-8-carboxylic acid] | > 0.1 | < 1 |  | < 0.1 | < 0.1 | < 0.1 | > 0.1 | Y (0.1 μM to 1 μM) | X (Less than 0.1 μM) |  |  | 
CCOc1ccc2c(c1C(=O)O)OB(O)[C@@H](Sc1nnc(NC3CNC3)s1)C2 [Compound 118, (3R)-3-[[5-(azetidin-3-ylamino)-1,3,4-thiadiazol-2-yl]sulfanyl]-7-ethoxy-2-hydroxy-3,4-dihydro-1,2-benzoxaborinine-8-carboxylic acid] | > 0.1 | < 1 |  | < 0.1 | < 0.1 | 0.1 to 1 | > 0.1 | Y (0.1 μM to 1 μM) | X (Less than 0.1 μM) |  |  | 
COc1ccc2c(c1C(=O)O)OB(O)[C@@H](Sc1nnc(SC3CCNCC3)s1)C2 [Compound 112, (3R)-2-hydroxy-7-methoxy-3-[[5-(4-piperidylsulfanyl)-1,3,4-thiadiazol-2-yl]sulfanyl]-3,4-dihydro-1,2-benzoxaborinine-8-carboxylic acid] | 0.01 to 0.1 | < 1 |  | < 0.1 | < 0.1 | < 0.1 | 0.01 to 0.1 | X (Less than 0.1 μM) | X (Less than 0.1 μM) |  |  | 
O=C(O)c1cccc2c1OB(O)[C@@H](OC1CNC1)C2 [Compound 18, (R)-3-(azetidin-3-yloxy)-2-hydroxy-3,4-dihydro-2H-benzo[e][1,2]oxaborinine-8-carboxylic acid] | 0.01 to 0.1 | ≥ 1 | < 0.01 | < 0.1 | < 0.1 | 0.1 to 1 | 0.01 to 0.1 |  |  | < 0.01 | < 0.01 | 
O=C(O)c1c(F)ccc2c1OB(O)[C@@H](Sc1cnns1)C2 [Compound 48, (3R)-7-fluoro-2-hydroxy-3-(thiadiazol-5-ylsulfanyl)-3,4-dihydro-1,2-benzoxaborinine-8-carboxylic acid] | > 0.1 | ≥ 1 |  | < 0.1 | < 0.1 | 0.1 to 1 | > 0.1 | Z (Greater than 1 μM) | X (Less than 0.1 μM) |  |  | 
COc1ccc2c(c1C(=O)O)OB(O)[C@@H](Sc1nnc(NCCN)s1)C2 [Compound 97, (3R)-3-[[5-(2-aminoethylamino)-1,3,4-thiadiazol-2-yl]sulfanyl]-2-hydroxy-7-methoxy-3,4-dihydro-1,2-benzoxaborinine-8-carboxylic acid] | < 0.01 | < 1 |  | < 0.1 | < 0.1 | 0.1 to 1 | < 0.01 | Y (0.1 μM to 1 μM) | X (Less than 0.1 μM) |  |  | significantly reduced
